{"source": "paper PMC11350758", "about": "“Development of Xanthoangelol-Derived Compounds with Membrane-Disrupting Effects against Gram-Positive Bacteria” (Antibiotics, 2024)", "type_in_all_cases": "cell-based", "key": {"[1]": {"tested_on": "Bacillus subtilis ATCC9372, penicillin-susceptible strain", "experiment": "MIC, broth microdilution", "conditions": "Bacillus subtilis ATCC9372; read-out: MIC B. s. 9372", "procedure,_shortened": "(§1)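 Twofold serial dilutions of compound in TSB broth were mixed with an equal volume of bacterial suspension (10^6 CFU/mL) and incubated at 37 °C for 24 h, following CLSI micro broth dilution. Experiments were repeated three times.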"}, "[2]": {"tested_on": "Enterococcus faecalis ATCC29212, vancomycin-susceptible strain", "experiment": "MIC, broth microdilution", "conditions": "Enterococcus faecalis ATCC29212; read-out: MIC E. f. 29212", "procedure,_shortened": "as §1"}, "[3]": {"tested_on": "Staphylococcus aureus ATCC25923, erythromycin-susceptible strain", "experiment": "MIC, broth microdilution", "conditions": "Staphylococcus aureus ATCC25923; read-out: MIC S. a. 25923", "procedure,_shortened": "as §1"}, "S. aureus ATCC43300 [4]": {"tested_on": "S. aureus ATCC43300", "experiment": "Bactericidal time-kill assay", "conditions": "8× MIC, 16 μg/mL", "procedure": "Natural AMPs have rapid bactericidal properties, and in order to examine whether active compound 9h have similar rapid bactericidal properties, the time-kill kinetics of 9h were carried out to test the bactericidal action against S. aureus ATCC4330 at four different concentrations.\nS. aureus ATCC43300 was cultured at 37 °C for 6 h and diluted to 1×10^6 CFU/mL. […] At each time point, the bacterial suspension (20 μL) was diluted in PBS, and the number of bacterial colonies was measured. All biological experiments were repeated three times."}, "[5]": {"tested_on": "preformed S. aureus ATCC43300 biofilm", "experiment": "Biofilm disruption assay (crystal violet)", "conditions": "biofilm grown for 24 h", "procedure": "Bacterial biofilms created by the aggregation of bacteria is considered as one of the main reasons for the development of drug resistance. […] Subsequently, we further assessed the efficiency of 9h to eradicate the preformed biofilm. Matured S. aureus biofilm (grown for 24 h) was treated with compound 9h, and the rate of biofilm disruption was then assessed by the crystal violet staining assay.\nBiofilm disruption: Briefly, S. aureus ATCC43300 (1 × 10^6 CFU/mL) was incubated in 96-well plates for 24 h to create biofilms. Next, the planktonic supernatant cells were removed. […] Then, the treated biofilm was determined by crystal violet assay. The OD values were measured at 575 nm. Biofilm disruption (%) = (ODcompound − ODblank)/(ODpositive control − ODblank) × 100%. All biological experiments were repeated three times."}, "S. aureus ATCC43300 [6]": {"tested_on": "S. aureus ATCC43300", "experiment": "ROS assay (DCFH-DA)", "conditions": "16 μg/mL", "procedure": "It is known that the disruption of bacterial cell membranes often causes the production of ROS in bacterial cells. The fluorescent probe DCFH-DA was used to monitor the level of intracellular ROS produced by S. aureus ATCC43300. DCFH-DA is initially non-fluorescent; however, it undergoes hydrolysis to DCFH upon entry into the cell. Subsequently, DCFH is converted to the fluorescent compound DCF when ROS are produced in the cells. […] The fluorescence intensity of 9h was about 8-fold higher than the PBS-treated group when the concentration of 9h increased 16 μg/mL.\nMid-log S. aureus ATCC43300 was collected and resuspended in PBS. Bacteria suspension (1.0 × 10^8 CFU/mL) was placed into a 96-well plate, and an equal volume of DCF-DA (10.0 μM) was mixed and incubated at 37 °C for 30 min. After incubation, the suspension was centrifuged (3500 rpm, 4 min), and the supernatant was removed and resuspended in PBS. […] The fluorescence intensity of each well was recorded by a microplate reader (Ex = 488 nm and Em = 530 nm). All biological experiments were repeated three times."}, "[7]": {"tested_on": "Gram-positive strains tested", "experiment": "MIC, summary over the Gram-positive strains tested", "conditions": "read-out: MICs against the Gram-positive strains tested, range over the Gram-positive panel", "procedure": "(§2) All target derivatives were assessed for their in vitro antibacterial activities using a broth microdilution assay to test their minimum inhibitory concentrations (MICs) against six Gram-positive strains (S. aureus ATCC31007, S. aureus ATCC25923, S. aureus ATCC43300, E. faecalis ATCC29212, B. subtilis ATCC9372, and S. epidermidis ATCC12228) and four Gram-negative strains (A. baumannii ATCC19606, K. pneumonia ATCC10031, E. coli ATCC25922, and P. aeruginosa ATCC27853). These compounds were also evaluated for their hemolytic activities and membrane selectivity by determining their HC50 (the concentration required to lyse 50% of red blood cells) and SI (HC50/MICs) values, respectively, and vancomycin was used as the positive drug.\n(§3) MICs of the derivatives were determined by the micro broth dilution method according to the American Clinical and Laboratory Standards Institute (CLSI) standards. Briefly, 2-fold serial dilutions of target compounds were prepared in 96-well plates containing TSB broth. An equal volume of bacterial suspension (10^6 CFU/mL) was then pipetted into each well, and the mixture was incubated at 37 °C for 24 h. […] All biological experiments were repeated three times."}, "[8]": {"tested_on": "Gram-negative bacteria tested", "experiment": "MIC, summary over the Gram-negative bacteria tested", "conditions": "read-out: MICs against the Gram-negative bacteria tested", "procedure": "as §2, §3"}}}
{"smiles": "CC(=O)c1c(OCCCNCCCN2CCN(C)CC2)c2c(c3c1OC(C)(CCC=C(C)C)C=C3)OC(C)(CCC=C(C)C)C=C2", "note": "(centres unmarked) [Compound 9h, 1-(2,8-Dimethyl-2,8-bis(4-methylpent-3-en-1-yl)-5-(3-((3-(4-methylpiperazin-1-yl)propyl)amino)propoxy)-2H,8H-pyrano [2,3-f]chromen-6-yl)ethan-1-one]", "values": [{"measurement": "MIC", "setting": "[1]", "value": 2, "unit": "µg/mL"}, {"measurement": "MIC", "setting": "[2]", "value": 1, "unit": "µg/mL"}, {"measurement": "MIC", "setting": "[3]", "value": 2, "unit": "µg/mL"}, {"measurement": "time to complete bacterial killing", "setting": "S. aureus ATCC43300 [4]", "value": 4, "unit": "h"}, {"measurement": "killing of S. aureus", "setting": "S. aureus ATCC43300 [4]; within 1 h", "value": "≥ 99.9", "unit": "%"}, {"measurement": "colony-forming unit (CFU) reduction", "setting": "S. aureus ATCC43300 [4]; within 1 h, compared with the control", "value": 5.95, "unit": "log"}, {"measurement": "eradication of preformed S. aureus biofilm", "setting": "[5]; 8 μg/mL", "value": "about 19.83%"}, {"measurement": "eradication of preformed S. aureus biofilm", "setting": "[5]; 1× MIC (2 μg/mL)", "value": 11.65, "unit": "%"}, {"measurement": "ROS fluorescence intensity vs PBS-treated group", "setting": "S. aureus ATCC43300 [6]", "value": "about 8 fold"}, {"measurement": "MIC", "setting": "[7]", "value": "0.5 to 8", "unit": "µg/mL"}, {"measurement": "MIC", "setting": "[8]", "value": "4 to 16", "unit": "µg/mL"}]}
